Drawing on patent US9497966B2, “Pesticidal compositions and related methods” (DOW AGROSCIENCES LLC, priority 2013, dated 2016), this text covers mortality for 23 compounds.

Structures are written as SMILES. Where only a bound is given, the exact number is not on record here.

Assay [1] concerns Sweetpotato Whitefly-Crawler (Bemisia tabaci) (WF) (BEMITA). Nature of the assay: Insecticidal test for Sweetpotato Whitefly-Crawler in foliar spray assay on cotton plants. In kind it is in vivo. The conditions noted are these: 216 h, 200 ppm foliar spray on cotton, graded after 9 days, Abbott-corrected % control, read-out: % Control (or Mortality) rating, WF. As for the experimental part: Example B: Insecticidal Test for Sweetpotato Whitefly-Crawler (Bemisia tabaci) (WF) (BEMITA) in Foliar Spray Assay
Cotton plants (Gossypium hirsutum) grown in 3-inch pots, with 1 small (4-5 cm) true leaves, were used as test substrate. The plants were infested with 200-400 whitefly eggs 4-5 days prior to chemical application. Four pots with individual plants were used for each treatment. Test compounds (2 mg) were dissolved in 1 mL of acetone solvent, forming stock solutions of 2000 ppm test compound. The stock solutions were diluted 10× with 0.025% Tween 20 in H2O (diluents) to obtain the solution at 200 ppm test compound. A hand-held aspirator-type sprayer was used for spraying a solution to both sides of cotton leaves until runoff. Reference plants (solvent check) were sprayed with the diluent only containing 10% by volume of acetone solvent. Treated plants were held in a holding room for 9 days at approximately 25° C. and ambient relative humidity (RH) prior to grading. Evaluation was conducted by counting the number of live 3-4 nymph stage per plant under a microscope. Percent control was measured by using Abbott's correction formula (W. S. Abbott, “A Method of Computing the Effectiveness of an Insecticide,” J. Econ. Entomol. 18 (1925), pp. 265-267) as follows. Corrected % Control=100*(X−Y)/X • where • X=No. of live nymphs on solvent check plants and • Y=No. of live nymphs on treated plants.
Biological Data for Green Peach Aphid (MYZUPE) and Sweetpotato Whitefly-crawler (WF) (BEMITA)” (See Table Section).

Assay [2] concerns Green Peach Aphid (Myzus persicae) (GPA) (MYZUPE). In words: Bioassay for Green Peach Aphid, foliar spray on infested cabbage seedlings. Format: in vivo. The conditions noted are these: 72 h, 200 ppm foliar spray on cabbage, graded after three days, Abbott-corrected % control, read-out: % Control (or Mortality) rating, GPA. On the procedure: Example A: Bioassays for Green Peach Aphid (Myzus persicae) (GPA) (MYZUPE)
Cabbage seedlings grown in 3-inch pots, with 2-3 small (3-5 cm) true leaves, were used as test substrate. The seedlings were infested with 20-50 GPA (wingless adult and nymph stages) one day prior to chemical application. Four pots with individual seedlings were used for each treatment. Test compounds (2 mg) were dissolved in 2 mL of acetonemethanol (1:1) solvent, forming stock solutions of 1000 ppm test compound. The stock solutions were diluted 5× with 0.025% Tween 20 in H2O to obtain the solution at 200 ppm test compound. A hand-held aspirator-type sprayer was used for spraying a solution to both sides of […] leaves until runoff. Reference plants (solvent check) were sprayed with the diluent only containing 20% by volume of acetonemethanol (1:1) solvent. Treated plants were held in a holding room for three days at approximately 25° C. and ambient relative humidity (RH) prior to grading. Evaluation was conducted by counting the number of live aphids per plant under a microscope. Percent control was measured by using Abbott's correction formula (W. S. Abbott, “A Method of Computing the Effectiveness of an Insecticide,” J. Econ. Entomol. 18 (1925), pp. 265-267) as follows. Corrected % Control=100*(X−Y)/X • where • X=No. of live aphids on solvent check plants and • Y=No. of live aphids on treated plants The results are indicated in the table entitled “TABLE 2. Biological Data for Green Peach Aphid (MYZUPE) and Sweetpotato Whitefly-crawler (WF) (BEMITA)” (See Table Section).

Consider `C#CCN(C(=O)C(CSC(c1ccccc1)(c1ccccc1)c1ccccc1)=NOCC)c1cn(-c2cccnc2)nc1Cl` [Compound F1, N-(3-chloro-1-(pyridin-3-yl)-1H-pyrazol-4-yl)-2-(ethoxyimino)-N-(prop-2-yn-1-yl)-3-(tritylthio)propanamide], for which the mortality at 200 ppm was 0 to 80% in assay [1] and under 0% in assay [2].
In the case of `C#CCN(C(=O)C(CSCC1CC1(F)F)=NOC)c1cn(-c2cccnc2)nc1Cl` (stereo not shown) [Compound F2, N-(3-Chloro-1-(pyridin-3-yl)-1H-pyrazol-4-yl)-3-(((2,2-difluorocyclopropyl)methyl)thio)-2-(methoxyimino)-N-(prop-2-yn-1-yl)propanamide], the mortality at 200 ppm in assay [1] and in assay [2] was 80 to 100% in each case.
For the compound `CCN(C(=O)C(CS(=O)(=O)CC1CC1(F)F)=NOC)c1cn(-c2cccnc2)nc1Cl` (stereo not shown) [Compound F3], the mortality at 200 ppm in assay [1] and in assay [2] was 80 to 100% each time.
Turning to `C#CCN(C(=O)C(CSC(c1ccccc1)(c1ccccc1)c1ccccc1)=NOC)c1cn(-c2cccnc2)nc1Cl` [Compound F4, N-(3-chloro-1-(pyridin-3-yl)-1H-pyrazol-4-yl)-2-(methoxyimino)-N-(prop-2-yn-1-yl)-3-(tritylthio)propanamide], the values for the mortality at 200 ppm in assay [1] and in assay [2] were 0 to 80% and under 0%, respectively.
As for `CCN(C(=O)C(CSCC1CC1(F)F)=NOC)c1cn(-c2cccnc2)nc1Cl` (stereo not shown) [Compound F5], the mortality at 200 ppm in assay [1] and in assay [2] was 80 to 100% each time.
Consider `C#CCN(C(=O)C(CSCC(F)(F)F)=NOC)c1cn(-c2cccnc2)nc1Cl` [Compound F6, N-(3-Chloro-1-(pyridin-3-yl)-1H-pyrazol-4-yl)-2-(methoxyimino)-N-(prop-2-yn-1-yl)-3-((2,2,2-trifluoroethyl)thio)propanamide], for which the mortality at 200 ppm in assay [1] and in assay [2] was 80 to 100% each time.
Regarding `C#CCN(C(=O)C(CS)=NOCC)c1cn(-c2cccnc2)nc1Cl` [Compound F7, N-(3-Chloro-1-(pyridin-3-yl)-1H-pyrazol-4-yl)-2-(ethoxyimino)-3-mercapto-N-(prop-2-yn-1-yl)propanamide], the mortality at 200 ppm in assay [1] was under 0%; in assay [2], 80 to 100%.
The matching figures for `CCN(C(=O)C(CS(=O)(=O)CCC(F)(F)F)=NOC)c1cn(-c2cccnc2)nc1Cl` [Compound F8, N-(3-Chloro-1-(pyridin-3-yl)-1H-pyrazol-4-yl)-N-ethyl-2-(methoxyimino)-3-((3,3,3-trifluoropropyl)sulfonyl)propanamide]: 80 to 100% and 80 to 100%.
The like results for `CCN(C(=O)C(CS)=NOC)c1cn(-c2cccnc2)nc1Cl` [Compound F9, N-(3-Chloro-1-(pyridin-3-yl)-1H-pyrazol-4-yl)-N-ethyl-3-mercapto-2-(methoxyimino)propanamide] were, in that order, 0 to 80% and 80 to 100%.
For the compound `CCON=C(CSCC1CC1(F)F)C(=O)N(CC)c1cn(-c2cccnc2)nc1Cl` (stereo not shown) [Compound F11, N-(3-Chloro-1-(pyridin-3-yl)-1H-pyrazol-4-yl)-3-(((2,2-difluorocyclopropyl)methyl)thio)-2-(ethoxyimino)-N-ethylpropanamide], the mortality at 200 ppm in assay [1] and in assay [2] was 80 to 100% throughout.
In the case of `CCON=C(CSC(c1ccccc1)(c1ccccc1)c1ccccc1)C(=O)N(CC)c1cn(-c2cccnc2)nc1Cl` [Compound F12, N-(3-chloro-1-(pyridin-3-yl)-1H-pyrazol-4-yl)-2-(ethoxyimino)-N-ethyl-3-(tritylthio)propanamide], the mortality at 200 ppm lay in the range of 80 to 100% in assay [1] and 0 to 80% in assay [2].
On to `C=CCON=C(CSC(c1ccccc1)(c1ccccc1)c1ccccc1)C(=O)N(CC)c1cn(-c2cccnc2)nc1Cl` [Compound F13, 2-((Allyloxy)imino)-N-(3-chloro-1-(pyridin-3-yl)-1H-pyrazol-4-yl)-N-ethyl-3-(tritylthio)propanamide], for which the mortality at 200 ppm in assay [1] and in assay [2] was 0 to 80% each time.
In the case of `CCN(C(=O)C(CSCCC(F)(F)F)=NOC)c1cn(-c2cccnc2)nc1Cl` [Compound F14, N-(3-chloro-1-(pyridin-3-yl)-1H-pyrazol-4-yl)-N-ethyl-2-(methoxyimino)-3-((3,3,3-trifluoropropyl)thio)propanamide], the mortality at 200 ppm in assay [1] and in assay [2] was 80 to 100% in each case.
On to `CCON=C(CSCCCC(F)(F)F)C(=O)N(CC)c1cn(-c2cccnc2)nc1Cl` [Compound F15, N-(3-Chloro-1-(pyridin-3-yl)-1H-pyrazol-4-yl)-2-(ethoxyimino)-N-ethyl-3-((4,4,4-trifluorobutyl)thio)propanamide], for which the mortality at 200 ppm in assay [1] and in assay [2] was 80 to 100% throughout.
`C#CCN(C(=O)C(CSCCC(F)(F)F)=NOCC)c1cn(-c2cccnc2)nc1Cl` [Compound F16, N-(3-Chloro-1-(pyridin-3-yl)-1H-pyrazol-4-yl)-2-(ethoxyimino)-N-(prop-2-yn-1-yl)-3-((3,3,3-trifluoropropyl)thio)propanamide]: the mortality at 200 ppm in assay [1] and in assay [2] was 80 to 100% throughout.
`CCON=C(CSCC(F)(F)F)C(=O)N(CC)c1cn(-c2cccnc2)nc1Cl` [Compound F17, N-(3-Chloro-1-(pyridin-3-yl)-1H-pyrazol-4-yl)-2-(ethoxyimino)-N-ethyl-3-((2,2,2-trifluoroethyl)thio)propanamide]: the mortality at 200 ppm in assay [1] and in assay [2] was 80 to 100% in each case.
As for `CCN(C(=O)C(C[S+]([O-])CCC(F)(F)F)=NOC)c1cn(-c2cccnc2)nc1Cl` (stereo not shown) [Compound F18, N-(3-Chloro-1-(pyridin-3-yl)-1H-pyrazol-4-yl)-N-ethyl-2-(methoxyimino)-3-((3,3,3-trifluoropropyl)sulfinyl)propanamide], the mortality at 200 ppm in assay [1] and in assay [2] was 80 to 100% in each case.
As for `C#CCN(C(=O)C(CSCCCC(F)(F)F)=NOC)c1cn(-c2cccnc2)nc1Cl` [Compound F19, N-(3-Chloro-1-(pyridin-3-yl)-1H-pyrazol-4-yl)-2-(methoxyimino)-N-(prop-2-yn-1-yl)-3-((4,4,4-trifluorobutyl)thio)propanamide], the mortality at 200 ppm in assay [1] and in assay [2] was 80 to 100% throughout.
For the compound `CCON=C(CS)C(=O)N(CC)c1cn(-c2cccnc2)nc1Cl` [Compound F20, N-(3-chloro-1-(pyridin-3-yl)-1H-pyrazol-4-yl)-2-(ethoxyimino)-N-ethyl-3-mercaptopropanamide], the results for the mortality at 200 ppm in assay [1] and in assay [2] were 0 to 80% and 80 to 100%, respectively.
On to `C#CCN(C(=O)C(CSCCC(F)(F)F)=NOC)c1cn(-c2cccnc2)nc1Cl` [Compound F21, N-(3-Chloro-1-(pyridin-3-yl)-1H-pyrazol-4-yl)-2-(methoxyimino)-N-(prop-2-yn-1-yl)-3-((3,3,3-trifluoropropyl)thio)propanamide], for which the mortality at 200 ppm in assay [1] and in assay [2] was 80 to 100% throughout.
On to `CCN(C(=O)C(C[S+]([O-])CC1CC1(F)F)=NOC)c1cn(-c2cccnc2)nc1Cl` (stereo not shown) [Compound F22], for which the mortality at 200 ppm in assay [1] and in assay [2] was 80 to 100% throughout.
`C#CCN(C(=O)C(CS)=NOC)c1cn(-c2cccnc2)nc1Cl` [Compound F23, N-(3-Chloro-1-(pyridin-3-yl)-1H-pyrazol-4-yl)-3-mercapto-2-(methoxyimino)-N-(prop-2-yn-1-yl)propanamide]: the mortality at 200 ppm in assay [1] and in assay [2] was 0 to 80% in each case.
Turning to `CCON=C(CSCCC(F)(F)F)C(=O)N(CC)c1cn(-c2cccnc2)nc1Cl` [Compound F24, N-(3-chloro-1-(pyridin-3-yl)-1H-pyrazol-4-yl)-2-(ethoxyimino)-N-ethyl-3-((3,3,3-trifluoropropyl)thio)propanamide], the mortality at 200 ppm in assay [1] and in assay [2] was 80 to 100% in each case.
